According to patent US20020026053A1, “Novel 3-(substituted) -2- indolinones compounds and use thereof as inhibitors of protein kinase activity” (priority 1997, published 2002):

molecular target: T1, Met receptor (EGFR/Met chimeric cells, EMR) (Homo sapiens, UniProt P08581); assay: Met Autophosphorylation Assay; assay type: biochemical
T1 construct: expressed in transfected cells; the other entry of the earlier key: EGFR (P00533, Epidermal growth factor receptor)
Procedure, shortened: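 Transiently transfected EGFR/Met chimeric (EMR) cells were lysed in HNTG with 1 mM PMSF. Met was captured on plates coated with goat anti-rabbit IgG, then rabbit anti-Met (C-28), using 90 μg lysate/100 μl for 60 min at room temperature. Phosphotyrosine was read by ELISA.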

T1 sequence (P08581 with tags, fused parts or gaps): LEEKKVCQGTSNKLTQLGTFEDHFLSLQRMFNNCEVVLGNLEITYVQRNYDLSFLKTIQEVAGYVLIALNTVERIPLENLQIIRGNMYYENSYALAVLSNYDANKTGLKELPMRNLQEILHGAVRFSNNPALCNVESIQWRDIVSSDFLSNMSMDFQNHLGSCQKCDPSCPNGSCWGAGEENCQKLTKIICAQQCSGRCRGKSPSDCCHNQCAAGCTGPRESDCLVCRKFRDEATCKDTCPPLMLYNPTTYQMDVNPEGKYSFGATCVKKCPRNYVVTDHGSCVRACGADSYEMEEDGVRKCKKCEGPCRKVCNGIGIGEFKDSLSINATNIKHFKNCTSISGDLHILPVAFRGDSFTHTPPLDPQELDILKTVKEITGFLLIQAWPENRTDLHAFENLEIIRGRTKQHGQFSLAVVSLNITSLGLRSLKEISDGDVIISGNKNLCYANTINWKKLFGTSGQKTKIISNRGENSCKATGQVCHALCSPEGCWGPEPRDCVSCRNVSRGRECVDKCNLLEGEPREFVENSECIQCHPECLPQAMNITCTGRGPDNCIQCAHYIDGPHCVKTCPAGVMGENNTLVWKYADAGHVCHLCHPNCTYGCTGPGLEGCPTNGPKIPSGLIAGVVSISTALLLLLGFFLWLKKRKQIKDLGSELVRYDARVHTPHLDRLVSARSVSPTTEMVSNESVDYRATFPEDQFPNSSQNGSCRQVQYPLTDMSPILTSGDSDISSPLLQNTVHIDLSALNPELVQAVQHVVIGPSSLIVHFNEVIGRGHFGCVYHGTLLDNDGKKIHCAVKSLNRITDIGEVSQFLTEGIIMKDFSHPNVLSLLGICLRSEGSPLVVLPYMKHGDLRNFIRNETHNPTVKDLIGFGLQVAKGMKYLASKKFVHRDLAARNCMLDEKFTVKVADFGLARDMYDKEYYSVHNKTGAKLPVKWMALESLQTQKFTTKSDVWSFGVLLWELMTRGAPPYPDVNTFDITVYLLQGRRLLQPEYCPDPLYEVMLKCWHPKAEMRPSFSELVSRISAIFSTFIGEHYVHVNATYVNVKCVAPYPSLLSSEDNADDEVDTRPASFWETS

Compound	Met Kinase % Inhibition (P.130)
Cc1c(O)ccc(C=C2C(=O)Nc3c(Br)cc(Br)c(C)c32)c1O [10718/H09]	73.6%
Cc1c(Br)cc(Br)c2c1C(=Cc1ccco1)C(=O)N2 [10718/H10]	19.9%
Cc1c(Br)cc(Br)c2c1C(=Cc1ccc([N+](=O)[O-])o1)C(=O)N2 [10718/H11]	44.9%
CCOc1ccc(C=C2C(=O)Nc3c(Br)cc(Br)c(C)c32)cc1OC [10719/H02]	36.9%
Cc1c(Br)cc(Br)c2c1C(=Cc1ccc(O)c(O)c1)C(=O)N2 [10719/H03]	67.0%
COc1ccc(C=C2C(=O)Nc3c(Br)cc(Br)c(C)c32)c(OC)c1 [10719/H04]	0.7%
CCc1c(C)[nH]c(C=C2C(=O)Nc3c(Br)cc(Br)c(C)c32)c1C [10719/H05]	20.9%
COc1cc(OC)c(C=C2C(=O)Nc3c(Br)cc(Br)c(C)c32)c(OC)c1 [10719/H06]	1.3%
CCN(CC)c1ccc(C=C2C(=O)Nc3c(Br)cc(Br)c(C)c32)c(O)c1 [10734/H05]	51.1%
Cc1c(Br)cc(Br)c2c1C(=Cc1ccc([N+](=O)[O-])cc1)C(=O)N2 [10734/H06]	32.7%
Cc1c(Br)cc(Br)c2c1C(=Cc1cc(Br)cc(Br)c1O)C(=O)N2 [10734/H07]	84.9%
Cc1c(Br)cc(Br)c2c1C(=Cc1cccc(F)c1O)C(=O)N2 [10734/H08]	64.8%
Cc1c(Br)cc(Br)c2c1C(=Cc1ccc(O)c(Br)c1)C(=O)N2 [10734/H09]	78.4%
Cc1c(Br)cc(Br)c2c1C(=Cc1ccc(C(C)(C)C)cc1)C(=O)N2 [10734/H10]	23.5%
Cc1c(Br)cc(Br)c2c1C(=Cc1ccc(Br)s1)C(=O)N2 [10734/H11]	28.7%
Cc1ccccc1C=C1C(=O)Nc2c(Br)cc(Br)cc21 [10735/A02]	26.9%
O=C1Nc2c(Br)cc(Br)cc2C1=Cc1ccc(F)c(F)c1 [10735/A03]	53.0%
O=C1Nc2c(Br)cc(Br)cc2C1=Cc1cc(F)cc(F)c1 [10735/A04]	48.0%
O=C1Nc2c(Br)cc(Br)cc2C1=Cc1cccc(C(F)(F)F)c1 [10735/A05]	46.1%
O=C1Nc2c(Br)cc(Br)cc2C1=Cc1cc(C(F)(F)F)cc(C(F)(F)F)c1 [10735/A06]	58.9%
N#Cc1ccccc1C=C1C(=O)Nc2c(Br)cc(Br)cc21 [10735/A07]	61.9%
O=C1Nc2c(Br)cc(Br)cc2C1=Cc1c(F)cccc1F [10735/A08]	50.8%
O=C1Nc2c(Br)cc(Br)cc2C1=Cc1cccc2ccccc12 [10735/A09]	19.2%
O=C1Nc2c(Br)cc(Br)cc2C1=Cc1ccc(Cl)cc1Cl [10735/A10]	41.4%
O=C1Nc2c(Br)cc(Br)cc2C1=Cc1ccc(-c2ccccc2)cc1 [10735/A11]	24.5%
Cc1ccccc1C=C1C(=O)Nc2ccc(I)cc21 [10735/B02]	72.4%

Compound	Met Kinase % Inhibition (P.130)
O=C1Nc2ccc(I)cc2C1=Cc1ccc(F)c(F)c1 [10735/B03]	73.3%
O=C1Nc2ccc(I)cc2C1=Cc1cc(F)cc(F)c1 [10735/B04]	79.0%
O=C1Nc2ccc(I)cc2C1=Cc1cccc(C(F)(F)F)c1 [10735/B05]	83.7%
O=C1Nc2ccc(I)cc2C1=Cc1cc(C(F)(F)F)cc(C(F)(F)F)c1 [10735/B06]	82.7%
N#Cc1ccccc1C=C1C(=O)Nc2ccc(I)cc21 [10735/B07]	56.0%
O=C1Nc2ccc(I)cc2C1=Cc1c(F)cccc1F [10735/B08]	53.4%
O=C1Nc2ccc(I)cc2C1=Cc1cccc2ccccc12 [10735/B09]	46.8%
O=C1Nc2ccc(I)cc2C1=Cc1ccc(Cl)cc1Cl [10735/B10]	73.3%
O=C1Nc2ccc(I)cc2C1=Cc1ccc(-c2ccccc2)cc1 [10735/B11]	69.0%
Cc1ccccc1C=C1C(=O)Nc2ccc(Br)c(C)c21 [10735/C02]	27.7%
Cc1c(Br)ccc2c1C(=Cc1ccc(F)c(F)c1)C(=O)N2 [10735/C03]	66.2%
Cc1c(Br)ccc2c1C(=Cc1cc(F)cc(F)c1)C(=O)N2 [10735/C04]	75.8%
Cc1c(Br)ccc2c1C(=Cc1cccc(C(F)(F)F)c1)C(=O)N2 [10735/C05]	59.4%
Cc1c(Br)ccc2c1C(=Cc1cc(C(F)(F)F)cc(C(F)(F)F)c1)C(=O)N2 [10735/C06]	47.0%
Cc1c(Br)ccc2c1C(=Cc1ccccc1C#N)C(=O)N2 [10735/C07]	49.1%
Cc1c(Br)ccc2c1C(=Cc1c(F)cccc1F)C(=O)N2 [10735/C08]	49.8%
Cc1c(Br)ccc2c1C(=Cc1cccc3ccccc13)C(=O)N2 [10735/C09]	24.1%
Cc1c(Br)ccc2c1C(=Cc1ccc(Cl)cc1Cl)C(=O)N2 [10735/C10]	37.8%
Cc1c(Br)ccc2c1C(=Cc1ccc(-c3ccccc3)cc1)C(=O)N2 [10735/C11]	14.1%
CNS(=O)(=O)c1ccc2c(c1)C(=Cc1ccccc1C)C(=O)N2 [10735/D02]	32.6%
CNS(=O)(=O)c1ccc2c(c1)C(=Cc1ccc(F)c(F)c1)C(=O)N2 [10735/D03]	41.2%
CNS(=O)(=O)c1ccc2c(c1)C(=Cc1cc(F)cc(F)c1)C(=O)N2 [10735/D04]	25.6%
CNS(=O)(=O)c1ccc2c(c1)C(=Cc1cccc(C(F)(F)F)c1)C(=O)N2 [10735/D05]	33.7%
CNS(=O)(=O)c1ccc2c(c1)C(=Cc1cc(C(F)(F)F)cc(C(F)(F)F)c1)C(=O)N2 [10735/D06]	36.9%
CNS(=O)(=O)c1ccc2c(c1)C(=Cc1ccccc1C#N)C(=O)N2 [10735/D07]	33.7%
CNS(=O)(=O)c1ccc2c(c1)C(=Cc1c(F)cccc1F)C(=O)N2 [10735/D08]	25.6%

Compound	Met Kinase % Inhibition (P.130)
CNS(=O)(=O)c1ccc2c(c1)C(=Cc1cccc3ccccc13)C(=O)N2 [10735/D09]	23.0%
CNS(=O)(=O)c1ccc2c(c1)C(=Cc1ccc(Cl)cc1Cl)C(=O)N2 [10735/D10]	35.0%
CNS(=O)(=O)c1ccc2c(c1)C(=Cc1ccc(-c3ccccc3)cc1)C(=O)N2 [10735/D11]	18.5%
Cc1ccccc1C=C1C(=O)Nc2ccc(S(=O)(=O)Nc3ccc(C(F)(F)F)cc3)cc21 [10735/E02]	13.2%
O=C1Nc2ccc(S(=O)(=O)Nc3ccc(C(F)(F)F)cc3)cc2C1=Cc1ccc(F)c(F)c1 [10735/E03]	71.8%
O=C1Nc2ccc(S(=O)(=O)Nc3ccc(C(F)(F)F)cc3)cc2C1=Cc1cc(F)cc(F)c1 [10735/E04]	85.2%
O=C1Nc2ccc(S(=O)(=O)Nc3ccc(C(F)(F)F)cc3)cc2C1=Cc1cccc(C(F)(F)F)c1 [10735/E05]	74.8%
O=C1Nc2ccc(S(=O)(=O)Nc3ccc(C(F)(F)F)cc3)cc2C1=Cc1cc(C(F)(F)F)cc(C(F)(F)F)c1 [10735/E06]	33.3%
N#Cc1ccccc1C=C1C(=O)Nc2ccc(S(=O)(=O)Nc3ccc(C(F)(F)F)cc3)cc21 [10735/E07]	64.5%
O=C1Nc2ccc(S(=O)(=O)Nc3ccc(C(F)(F)F)cc3)cc2C1=Cc1c(F)cccc1F [10735/E08]	35.7%
O=C1Nc2ccc(S(=O)(=O)Nc3ccc(C(F)(F)F)cc3)cc2C1=Cc1cccc2ccccc12 [10735/E09]	11.3%
O=C1Nc2ccc(S(=O)(=O)Nc3ccc(C(F)(F)F)cc3)cc2C1=Cc1ccc(Cl)cc1Cl [10735/E10]	41.8%
O=C1Nc2ccc(S(=O)(=O)Nc3ccc(C(F)(F)F)cc3)cc2C1=Cc1ccc(-c2ccccc2)cc1 [10735/E11]	7.2%
Cc1ccccc1C=C1C(=O)Nc2ccc(S(=O)(=O)N3CCOCC3)cc21 [10735/F02]	31.2%
O=C1Nc2ccc(S(=O)(=O)N3CCOCC3)cc2C1=Cc1ccc(F)c(F)c1 [10735/F03]	36.1%
O=C1Nc2ccc(S(=O)(=O)N3CCOCC3)cc2C1=Cc1cc(F)cc(F)c1 [10735/F04]	41.6%
O=C1Nc2ccc(S(=O)(=O)N3CCOCC3)cc2C1=Cc1cccc(C(F)(F)F)c1 [10735/F05]	26.4%
O=C1Nc2ccc(S(=O)(=O)N3CCOCC3)cc2C1=Cc1cc(C(F)(F)F)cc(C(F)(F)F)c1 [10735/F06]	39.5%
N#Cc1ccccc1C=C1C(=O)Nc2ccc(S(=O)(=O)N3CCOCC3)cc21 [10735/F07]	39.7%
O=C1Nc2ccc(S(=O)(=O)N3CCOCC3)cc2C1=Cc1c(F)cccc1F [10735/F08]	18.5%
O=C1Nc2ccc(S(=O)(=O)N3CCOCC3)cc2C1=Cc1cccc2ccccc12 [10735/F09]	7.0%
O=C1Nc2ccc(S(=O)(=O)N3CCOCC3)cc2C1=Cc1ccc(Cl)cc1Cl [10735/F10]	13.0%
O=C1Nc2ccc(S(=O)(=O)N3CCOCC3)cc2C1=Cc1ccc(-c2ccccc2)cc1 [10735/F11]	16.6%
Cc1ccccc1C=C1C(=O)Nc2ccc(CCCl)cc21 [10735/G02]	26.0%
O=C1Nc2ccc(CCCl)cc2C1=Cc1ccc(F)c(F)c1 [10735/G03]	24.3%
O=C1Nc2ccc(CCCl)cc2C1=Cc1cc(F)cc(F)c1 [10735/G04]	28.8%
